Calls of active or inactive are those of the source. No cut-off for these calls is given here.
Test system: HT-29
Assay: Antiproliferative activity against human HT-29 cells after 1 to 15 hrs
Type: functional, cell-based

Compound	Activity
CCC(C)C1OC(=O)[C@@H](NC(=O)c2cccc(N)c2O)[C@H](C)OC(=O)C(C)(C)C(=O)C(CC(C)C)OC1=O (some centres not stated)	Active
CCC(C)C1OC(=O)[C@@H](NC(=O)c2cccc(O)c2O)[C@H](C)OC(=O)C(C)(C)C(=O)C(CC(C)C)OC1=O (some centres not stated)	Active
